Laboratory results: publication PMC6325233, “A Novel Actin Binding Drug with In Vivo Efficacy” (Antimicrobial Agents and Chemotherapy, 2018)
Entries after “also recorded” stand apart in the source; their conditions may differ.

Experiments:
Format in all cases: cell-based
[1] = test system: Trichophyton mentagrophytes 10207; experiment: MIC susceptibility testing (itraconazole-resistant strain); conditions: CLSI M38-A2; 96 hours
Method: (§1) Occidiofungin was purified from a liquid culture of Burkholderia contaminans MS14 as previously described ([21]). MIC susceptibility testing was performed according to the CLSI M27-A3 and M38-A2 standards for the susceptibility testing of yeasts and filamentous fungi, respectively. S. cerevisiae deletion mutants were obtained from the commercially available BY4741 deletion library (Thermo Scientific).

Candida glabrata 27243 = experiment: MIC susceptibility testing (fluconazole-resistant strain); set-up: key to MIC, 50% inhibition: -: indicates absence of isolates with 50% inhibition endpoint; conditions: CLSI M27-A3
Method: as §1

S. cerevisiae Δarc18 = experiment: MIC against deletion mutant; conditions: ARP2/3 subunit
Method: as §1

S. cerevisiae Δbem2 = experiment: MIC against deletion mutant; conditions: Rho-GAP for the CWI pathway
Method: as §1

S. cerevisiae Δbnr1 = experiment: MIC against deletion mutant; conditions: Actin nucleation, Formin
Method: as §1

S. cerevisiae Δcap2 = experiment: MIC against deletion mutant; conditions: Barbed-end actin capping protein
Method: as §1

S. cerevisiae Δmyo4 = experiment: MIC against deletion mutant; conditions: Actin based motor activity, Type V motor
Method: as §1

S. cerevisiae Δmyo5 = experiment: MIC against deletion mutant; conditions: Actin based motor activity, Type I motor
Method: as §1

S. cerevisiae Δrdi1 = experiment: MIC against deletion mutant; conditions: Rho GDP-inhibitor
Method: as §1

S. cerevisiae Δrom1 = experiment: MIC against deletion mutant; conditions: Rho1-GEF
Method: as §1

S. cerevisiae Δrom2 = experiment: MIC against deletion mutant; conditions: Rho1/2-GEF
Method: as §1

S. cerevisiae Δsac7 = experiment: MIC against deletion mutant; conditions: Rho1-GAP
Method: as §1

S. cerevisiae Δscp1 = experiment: MIC against deletion mutant; conditions: Actin cross linker
Method: as §1

S. cerevisiae Δtpm1 = experiment: MIC against deletion mutant
Method: as §1

[2] = test system: Candida albicans strain ATCC 66027; experiment: Hyphal induction (morphology switching) assay; conditions: for % hyphae / % yeast: 1 µg/ml
Method: The hyphal induction assay was performed as previously reported with minor modifications ([58]). Candida albicans strain ATCC 66027 was grown in yeast extract-peptone-dextrose (YPD) medium at 30°C for 48 h to reach saturation with an OD600 of 17 to 19. Cells were diluted into fresh Spider medium (1% nutrient broth, 1% mannitol, 0.2% K2HPO4) to obtain an OD600 of 0.05 (∼0.5 × 10^6 to 1 × 10^6 cells/ml) and incubated at 37°C with shaking to induce hyphal formation. Immediately prior to the 37°C incubation, occidiofungin (1 µg/ml; 0.5× MIC) or an equal volume of DMSO was added to the cultures. Aliquots were removed at 0-, 1-, 2-, 4-, and 6-h time points and fixed in 3.7% formaldehyde for later analysis of cell morphology by light microscopy. More than 200 cells were examined for each time point, and cells were scored as having either a yeast or filamentous form, with cells showing any outgrowth considered filamentous. DNA segregation assays were performed using a mid-log culture of S. cerevisiae (BY4743, diploid) and C. albicans (ATCC 66027). The cultures were diluted in fresh YPD medium to obtain OD600s of 0.095 (∼1 × 10^6 to 1.5 × 10^6 cells/ml) and 0.05 (0.5 × 10^6 to 0.8 × 10^6 cells/ml), respectively. A blank vehicle control (DMSO) or occidiofungin (1 µg/ml; 0.5× MIC) was added, and the cultures were placed at 30°C with shaking. Samples were removed at 0.5, 1, and 2 h, and the cells fixed by adding formaldehyde (3.7%). The cells were washed in phosphate-buffered saline (PBS) and permeabilized by adding an equivalent volume of PBS containing 0.2% Triton X-100 for 30 min at room temperature. The cells were washed thrice in PBS, added to concanavalin A-treated glass slides, and overlaid with Vectashield plus DAPI (4′,6-diamidino-2-phenylindole). Images were viewed using a Nikon 50i fluorescence microscope with a 100× oil immersion objective and DAPI filter. Cells were scored on the basis of bud morphology and DNA location. One-way analyses of variance (ANOVAs) with post hoc Tukey’s honestly significant difference (HSD) testing were used to determine statistically significant differences in the distributions between treated and untreated cells. In addition, FM-464 uptake assays were used to observe endocytosis. Three 1-ml aliquots of S. pombe (OD600 of 0.6 to 0.8) were treated with 1 μl DMSO, 0.5 μg/ml (0.5× MIC), or 1 μg/ml (1× MIC) of native occidiofungin for 30 min at 30°C. The cells were washed thrice with PBS and resuspended in YPD medium containing […] FM-464 (Thermo Fisher Scientific). The cells were incubated for 60 min at 30°C, followed by two washes in PBS before visualizing on an Olympus FV1000 confocal microscope with a 40×/0.9 dry objective. Lastly, actin polymerization and depolymerization assays were performed using the Actin polymerization biochem kit (catalog number BK003; Cytoskeleton, Inc.) according to the manufacturer’s instructions.

S. pombe = experiment: FM-464 uptake (endocytosis) assay; conditions: 0.5 μg/ml (0.5× MIC) and 1 μg/ml (1× MIC), 30 min, 30°C
Method: The hyphal induction assay was performed as previously reported with minor modifications ([58]). Candida albicans strain ATCC 66027 was grown in yeast extract-peptone-dextrose (YPD) medium at 30°C for 48 h to reach saturation with an OD600 of 17 to 19. Cells were diluted into fresh Spider medium (1% nutrient broth, 1% mannitol, 0.2% K2HPO4) to obtain an OD600 of 0.05 (∼0.5 × 10^6 to 1 × 10^6 cells/ml) and incubated at 37°C with shaking to induce hyphal formation. Immediately prior to the 37°C incubation, occidiofungin (1 µg/ml; 0.5× MIC) or an equal volume of DMSO was added to the cultures. Aliquots were removed at 0-, 1-, 2-, 4-, and 6-h time points and fixed in 3.7% formaldehyde for later analysis of cell morphology by light microscopy. More than 200 cells were examined for each time point, and cells were scored as having either a yeast or filamentous form, with cells showing any outgrowth considered filamentous. DNA segregation assays were performed using a mid-log culture of S. cerevisiae (BY4743, diploid) and C. albicans (ATCC 66027). The cultures were diluted in fresh YPD medium to obtain OD600s of 0.095 (∼1 × 10^6 to 1.5 × 10^6 cells/ml) and 0.05 (0.5 × 10^6 to 0.8 × 10^6 cells/ml), respectively. […] Images were viewed using a Nikon 50i fluorescence microscope with a 100× oil immersion objective and DAPI filter. Cells were scored on the basis of bud morphology and DNA location. […]

[3] = T=1hr, replicate 1, untreated 51.7/48.3
[4] = T=1hr, replicate 2, untreated 72.7/27.3
[5] = T=1hr, replicate 3, untreated 43.6/56.4
[6] = T=2hr, replicate 1, untreated 23.4/76.6
[7] = T=2hr, replicate 2, untreated 15.6/84.4
[8] = T=2hr, replicate 3, untreated 14.2/85.8
[9] = T=4hr, replicate 1, untreated 7.1/92.9
[10] = T=4hr, replicate 2, untreated 17.4/82.6
[11] = T=4hr, replicate 3, untreated 13.2/86.8
[12] = T=6hr, replicate 2, untreated 52.2/47.8
[13] = T=6hr, replicate 3, untreated 21.1/78.9

In the case of occidiofungin, the “MIC, 80% inhibition” value [1] is reported as 1 µg/mL, the “MIC, 100% inhibition” value [1] is reported as 2 µg/mL and the “MIC, 50% inhibition” value (Candida glabrata 27243; 24 hours) is reported as 2 µg/mL. The “MIC, 100% inhibition” value (Candida glabrata 27243; 24 hours) was 4 µg/mL, the “MIC, 50% inhibition” value (Candida glabrata 27243; 48 hours) was “-” and the “MIC, 100% inhibition” value (Candida glabrata 27243; 48 hours) was 4 µg/mL. The MIC (S. cerevisiae Δarc18) was 0.25 µg/mL, the MIC (S. cerevisiae Δbem2) was 0.25 µg/mL and the MIC (S. cerevisiae Δbnr1) was 0.25 µg/mL. The MIC (S. cerevisiae Δcap2) was 0.25 µg/mL, the MIC (S. cerevisiae Δmyo4) was 0.25 µg/mL and the MIC (S. cerevisiae Δmyo5) was 0.25 µg/mL. The MIC (S. cerevisiae Δrdi1) was 0.25 µg/mL, the MIC (S. cerevisiae Δrom1) was 0.25 µg/mL and the MIC (S. cerevisiae Δrom2) was 0.25 µg/mL. It also gave an MIC (S. cerevisiae Δsac7) of 0.25 µg/mL, an MIC (S. cerevisiae Δscp1) of 0.25 µg/mL and an MIC (S. cerevisiae Δtpm1; Actin filament binding, Tropomyosin) of 1.0 µg/mL. The “resistance to occidiofungin of Δtpm1 mutant” value (S. cerevisiae Δtpm1; vs parent, MIC) was 4 -fold, the “% hyphae” value ([2]; T=0hr, replicate 1) was 0% and the “% yeast” value ([2]; T=0hr, replicate 1) was 100%. For the same substance, the “% hyphae” value ([2]; T=0hr, replicate 2) was 0%, the “% yeast” value ([2]; T=0hr, replicate 2) was 100% and the “% hyphae” value ([2]; T=0hr, replicate 3) was 0%. The “% yeast” value ([2]; T=0hr, replicate 3) was 100%, the “% hyphae” value [2, 3] was 0% and the “% yeast” value [2, 3] was 100%. For the same substance, the “% hyphae” value [2, 4] was 0%, the “% yeast” value [2, 4] was 100% and the “% hyphae” value [2, 5] was 0%. The “% yeast” value [2, 5] was 100%, the “% hyphae” value [2, 6] was 0% and the “% yeast” value [2, 6] was 100%. The “% hyphae” value [2, 7] was 0%, the “% yeast” value [2, 7] was 100% and the “% hyphae” value [2, 8] was 0%. The “% yeast” value [2, 8] was 100%, the “% hyphae” value [2, 9] was 0.5% and the “% yeast” value [2, 9] was 99.5%. The “% hyphae” value [2, 10] was 0%, the “% yeast” value [2, 10] was 100% and the “% hyphae” value [2, 11] was 0.2%. The “% yeast” value [2, 11] was 99.8%, the “% hyphae” value [2, 12] was 0% and the “% yeast” value [2, 12] was 100%. The “% hyphae” value [2, 13] was 0%, the “% yeast” value [2, 13] was 100% and the “effect on hyphal formation” value ([2]; subinhibitory concentration (1 µg/ml; 0.5× MIC)) was “blocked hyphal formation”. For the same substance, the “effect on endocytosis (FM-464-stained vesicles)” value (S. pombe) was “concentration-dependent reductions in stained endocytic vesicles; also recorded: decreased in a dose-dependent fashion”.
